{
  "source": "patent US6509050B1",
  "about": "“Use of antimicrobial polyphosphates in food processing” (Astaris LLC, priority 1999, dated 2003)",
  "format_in_all_cases": "cell-based",
  "key": {"[1]": {"test_system": "lactic acid organisms", "assay": "Growth of lactic acid organisms in sectioned and formed ham (Example 7)", "details": "after 8 weeks storage at 1.11° C., no phosphate: 7.42", "experimental": "(§1) Five 16 Kg batches of restructured ham were prepared. Fresh whole pork hams were skinned, boned, sectioned into muscles, and each muscle trimmed to remove all trimmable connective tissue and subcutaneous and intramuscular fat. […] The pumped muscles were macerated manually to facilitate brine absorption; tumbled; and stuffed into fibrous casings in 908.0 g chubs. The hams were weighed and then cooked to 71.1° C. internal temperature. Cooked hams were chilled for 24 hr at 0° C., vacuum packaged, and stored at 1.11° C. for 8 weeks. Sample homogenate was prepared by blending 11 g of ham with 99 mL of sterile 0.1% peptone diluent and agitating for 1 min in a stomacher. Serial dilutions were prepared by transferring 1.0 mL aliquots of the sample diluent to 9 mL of sterile 0.1% peptone. […] Duplicate samples were analyzed for each treatment."}, "[2]": {"test_system": "aerobic plate count", "assay": "Aerobic plate count in sectioned and formed ham (Example 7)", "details": "after 8 weeks storage at 1.11° C., no phosphate: 6.03", "experimental": "as §1"}, "[3]": {"test_system": "psychrotrophic organisms", "assay": "Growth of psychrotrophic microorganisms in sectioned and formed ham (Example 7)", "details": "after 8 weeks storage at 1.11° C., no phosphate: 7.79", "experimental": "as §1"}, "[4]": {"test_system": "psychrotrophic organisms", "assay": "Growth of psychrotrophic microorganisms in sectioned and formed ham (Example 6)", "details": "0.4% by weight phosphate in cooked ham; after 8 weeks storage at 0° C.; no phosphate: 3.97; listed as Sodium tripolyphosphate (pH about 9.8)", "experimental": "Seven batches 40-pound (about 18.2 Kg) of cooked sectioned and formed boneless ham were manufactured to meet the following specifications: moisture, 71.2-73.7%; protein, 18.1-19.8%; fat, 3.66-6.31%; salt, 2.0%; and phosphate, 0.4%. The hams were manufactured to conform to the standards of identity for a cooked ham with a minimum of 18.5% protein fat free (PFF). The phosphate salts (0.4% by weight) indicated in Table 6 were added to six of the hams. […] After injection, the hams were vacuum-tumbled for 45 min, stuffed into 6.5-in (about 16.5 cm) diameter fibrous casings, and then cooked to an internal temperature of 71.1° C. Cooked hams were chilled for 8 hr at 0° C., vacuum packaged, and stored at 0° C. for 8 weeks. Sample homogenate was prepared by blending 11 g of ham with 99 mL of sterile 0.1% peptone diluent and agitating for 1 min in a stomacher. Serial dilutions were prepared by transferring 1.0 mL aliquots of the sample diluent to 9 mL of sterile 0.1% peptone. The appropriate dilutions were plated on plate count agar. The plates were incubated at 7° C. for 10 days."}},
  "note": "“And” between values parts separate entries of the source, which are not always exact repeats. Equal entries are not always repeated.",
  "data": [
    {"compound": "O=P([O-])(O)OP(=O)([O-])O.[Na+].[Na+]", "note": "[Sodium acid pyrophosphate]", "values": [
      {"measurement": "log (colony forming units)/g", "setting": "[1]; 1.0% phosphate in ham", "result": "5.38 log (colony forming units)/g"},
      {"measurement": "log (colony forming units)/g", "setting": "[2]; 1.0% phosphate in ham", "result": "4.49 log (colony forming units)/g"},
      {"measurement": "log (colony forming units)/g", "setting": "[3]; 1.0% phosphate in ham", "result": "5.28 log (colony forming units)/g"}
    ]},
    {"compound": "O=P(O)(O)OP(=O)(O)OP(=O)(O)O", "note": "[Sodium tripolyphosphate]", "values": [
      {"measurement": "log (colony forming units)/g", "setting": "[1]; 0.4% phosphate in ham", "result": "6.62 log (colony forming units)/g"},
      {"measurement": "log (colony forming units)/g", "setting": "[1]; 1.0% phosphate in ham", "result": "6.70 log (colony forming units)/g"},
      {"measurement": "log (colony forming units)/g", "setting": "[4]", "result": "1.58 log (colony forming units)/g and 1.84 log (colony forming units)/g"},
      {"measurement": "log (colony forming units)/g", "setting": "[2]; 0.4% phosphate in ham", "result": "6.69 log (colony forming units)/g"},
      {"measurement": "log (colony forming units)/g", "setting": "[2]; 1.0% phosphate in ham", "result": "5.67 log (colony forming units)/g"},
      {"measurement": "log (colony forming units)/g", "setting": "[3]; 0.4% phosphate in ham", "result": "7.8 log (colony forming units)/g"},
      {"measurement": "log (colony forming units)/g", "setting": "[3]; 1.0% phosphate in ham", "result": "5.91 log (colony forming units)/g"}
    ]},
    {"compound": "O=P1([O-])OP(=O)([O-])OP(=O)([O-])OP(=O)([O-])OP(=O)([O-])OP(=O)([O-])O1.[Na+].[Na+].[Na+].[Na+].[Na+].[Na+]", "note": "[Sodium hexametaphosphate]", "values": [
      {"measurement": "log (colony forming units)/g", "setting": "[1]; 1.0% phosphate in ham", "result": "6.24 log (colony forming units)/g"},
      {"measurement": "log (colony forming units)/g", "setting": "[2]; 1.0% phosphate in ham", "result": "4.55 log (colony forming units)/g"},
      {"measurement": "log (colony forming units)/g", "setting": "[3]; 1.0% phosphate in ham", "result": "4.62 log (colony forming units)/g"}
    ]}
  ]
}
